{"source": "the NIST ThermoML archive (doi:10.1021/je101361u)", "experiment": "xn = mol fraction of the nth substance listed", "settings": "101.3 kPa, Liquid", "note": "± gives the expanded uncertainty stated by the source.", "data": [{"smiles": "COCCOC", "note": "[1,2-dimethoxyethane] + ClCCCl", "values": [{"measurement": "mass density", "setting": "293.15 K, x2 = 0.75", "result": "1136.95 ± 0.46", "unit": "kg/m3"}, {"measurement": "mass density", "setting": "293.15 K, x2 = 0.8", "result": "1158.71 ± 0.49", "unit": "kg/m3"}, {"measurement": "mass density", "setting": "293.15 K, x2 = 0.85", "result": "1181.37 ± 0.52", "unit": "kg/m3"}, {"measurement": "mass density", "setting": "293.15 K, x2 = 0.9", "result": "1204.56 ± 0.54", "unit": "kg/m3"}, {"measurement": "mass density", "setting": "293.15 K, x2 = 0.925", "result": "1216.32 ± 0.56", "unit": "kg/m3"}, {"measurement": "mass density", "setting": "293.15 K, x2 = 0.975", "result": "1240.62 ± 0.59", "unit": "kg/m3"}, {"measurement": "mass density", "setting": "298.15 K, x2 = 0.0251", "result": "868.99 ± 0.51", "unit": "kg/m3"}, {"measurement": "mass density", "setting": "298.15 K, x2 = 0.05", "result": "876.59 ± 0.49", "unit": "kg/m3"}, {"measurement": "mass density", "setting": "298.15 K, x2 = 0.0501", "result": "876.66 ± 0.49", "unit": "kg/m3"}, {"measurement": "mass density", "setting": "298.15 K, x2 = 0.075", "result": "884.34 ± 0.48", "unit": "kg/m3"}, {"measurement": "mass density", "setting": "298.15 K, x2 = 0.1", "result": "892.12 ± 0.47", "unit": "kg/m3"}, {"measurement": "mass density", "setting": "298.15 K, x2 = 0.1552", "result": "909.76 ± 0.44", "unit": "kg/m3"}, {"measurement": "mass density", "setting": "298.15 K, x2 = 0.2001", "result": "924.35 ± 0.41", "unit": "kg/m3"}, {"measurement": "mass density", "setting": "298.15 K, x2 = 0.2501", "result": "940.98 ± 0.39", "unit": "kg/m3"}, {"measurement": "mass density", "setting": "298.15 K, x2 = 0.3002", "result": "957.99 ± 0.36", "unit": "kg/m3"}, {"measurement": "mass density", "setting": "298.15 K, x2 = 0.35", "result": "975.28 ± 0.34", "unit": "kg/m3"}, {"measurement": "mass density", "setting": "298.15 K, x2 = 0.4001", "result": "993.07 ± 0.31", "unit": "kg/m3"}, {"measurement": "mass density", "setting": "298.15 K, x2 = 0.45", "result": "1011.21 ± 0.32", "unit": "kg/m3"}, {"measurement": "mass density", "setting": "298.15 K, x2 = 0.5", "result": "1029.82 ± 0.33", "unit": "kg/m3"}, {"measurement": "mass density", "setting": "298.15 K, x2 = 0.5001", "result": "1029.91 ± 0.33", "unit": "kg/m3"}, {"measurement": "mass density", "setting": "298.15 K, x2 = 0.55", "result": "1048.93 ± 0.36", "unit": "kg/m3"}, {"measurement": "mass density", "setting": "298.15 K, x2 = 0.6001", "result": "1068.48 ± 0.38", "unit": "kg/m3"}, {"measurement": "mass density", "setting": "298.15 K, x2 = 0.65", "result": "1088.51 ± 0.4", "unit": "kg/m3"}, {"measurement": "mass density", "setting": "298.15 K, x2 = 0.7", "result": "1109.08 ± 0.42", "unit": "kg/m3"}, {"measurement": "mass density", "setting": "298.15 K, x2 = 0.75", "result": "1130.3 ± 0.45", "unit": "kg/m3"}, {"measurement": "mass density", "setting": "298.15 K, x2 = 0.8", "result": "1151.94 ± 0.48", "unit": "kg/m3"}, {"measurement": "mass density", "setting": "298.15 K, x2 = 0.85", "result": "1174.49 ± 0.51", "unit": "kg/m3"}, {"measurement": "mass density", "setting": "298.15 K, x2 = 0.9", "result": "1197.56 ± 0.53", "unit": "kg/m3"}, {"measurement": "mass density", "setting": "298.15 K, x2 = 0.925", "result": "1209.25 ± 0.55", "unit": "kg/m3"}, {"measurement": "mass density", "setting": "298.15 K, x2 = 0.975", "result": "1233.42 ± 0.58", "unit": "kg/m3"}, {"measurement": "mass density", "setting": "303.15 K, x2 = 0.0251", "result": "863.45 ± 0.51", "unit": "kg/m3"}, {"measurement": "mass density", "setting": "303.15 K, x2 = 0.05", "result": "871.02 ± 0.5", "unit": "kg/m3"}, {"measurement": "mass density", "setting": "303.15 K, x2 = 0.0501", "result": "871.08 ± 0.5", "unit": "kg/m3"}, {"measurement": "mass density", "setting": "303.15 K, x2 = 0.075", "result": "878.74 ± 0.49", "unit": "kg/m3"}, {"measurement": "mass density", "setting": "303.15 K, x2 = 0.1", "result": "886.49 ± 0.47", "unit": "kg/m3"}, {"measurement": "mass density", "setting": "303.15 K, x2 = 0.1552", "result": "904.05 ± 0.44", "unit": "kg/m3"}, {"measurement": "mass density", "setting": "303.15 K, x2 = 0.2001", "result": "918.59 ± 0.42", "unit": "kg/m3"}, {"measurement": "mass density", "setting": "303.15 K, x2 = 0.2501", "result": "935.15 ± 0.39", "unit": "kg/m3"}, {"measurement": "mass density", "setting": "303.15 K, x2 = 0.3002", "result": "952.09 ± 0.37", "unit": "kg/m3"}, {"measurement": "mass density", "setting": "303.15 K, x2 = 0.35", "result": "969.3 ± 0.34", "unit": "kg/m3"}, {"measurement": "mass density", "setting": "303.15 K, x2 = 0.4001", "result": "987.02 ± 0.32", "unit": "kg/m3"}, {"measurement": "mass density", "setting": "303.15 K, x2 = 0.45", "result": "1005.09 ± 0.31", "unit": "kg/m3"}, {"measurement": "mass density", "setting": "303.15 K, x2 = 0.5", "result": "1023.61 ± 0.33", "unit": "kg/m3"}, {"measurement": "mass density", "setting": "303.15 K, x2 = 0.5001", "result": "1023.7 ± 0.33", "unit": "kg/m3"}, {"measurement": "mass density", "setting": "303.15 K, x2 = 0.55", "result": "1042.63 ± 0.35", "unit": "kg/m3"}, {"measurement": "mass density", "setting": "303.15 K, x2 = 0.6001", "result": "1062.09 ± 0.37", "unit": "kg/m3"}, {"measurement": "mass density", "setting": "303.15 K, x2 = 0.65", "result": "1082.03 ± 0.39", "unit": "kg/m3"}, {"measurement": "mass density", "setting": "303.15 K, x2 = 0.7", "result": "1102.5 ± 0.41", "unit": "kg/m3"}, {"measurement": "mass density", "setting": "303.15 K, x2 = 0.75", "result": "1123.6 ± 0.44", "unit": "kg/m3"}, {"measurement": "mass density", "setting": "303.15 K, x2 = 0.8", "result": "1145.15 ± 0.47", "unit": "kg/m3"}, {"measurement": "mass density", "setting": "303.15 K, x2 = 0.85", "result": "1167.57 ± 0.5", "unit": "kg/m3"}, {"measurement": "mass density", "setting": "303.15 K, x2 = 0.9", "result": "1190.51 ± 0.52", "unit": "kg/m3"}, {"measurement": "mass density", "setting": "303.15 K, x2 = 0.925", "result": "1202.14 ± 0.54", "unit": "kg/m3"}, {"measurement": "mass density", "setting": "303.15 K, x2 = 0.975", "result": "1226.18 ± 0.57", "unit": "kg/m3"}, {"measurement": "mass density", "setting": "308.15 K, x2 = 0.0251", "result": "857.87 ± 0.52", "unit": "kg/m3"}, {"measurement": "mass density", "setting": "308.15 K, x2 = 0.05", "result": "865.42 ± 0.51", "unit": "kg/m3"}, {"measurement": "mass density", "setting": "308.15 K, x2 = 0.0501", "result": "865.47 ± 0.51", "unit": "kg/m3"}, {"measurement": "mass density", "setting": "308.15 K, x2 = 0.075", "result": "873.1 ± 0.49", "unit": "kg/m3"}, {"measurement": "mass density", "setting": "308.15 K, x2 = 0.1", "result": "880.82 ± 0.48", "unit": "kg/m3"}, {"measurement": "mass density", "setting": "308.15 K, x2 = 0.1552", "result": "898.32 ± 0.45", "unit": "kg/m3"}, {"measurement": "mass density", "setting": "308.15 K, x2 = 0.2001", "result": "912.79 ± 0.42", "unit": "kg/m3"}, {"measurement": "mass density", "setting": "308.15 K, x2 = 0.2501", "result": "929.28 ± 0.4", "unit": "kg/m3"}, {"measurement": "mass density", "setting": "308.15 K, x2 = 0.3002", "result": "946.16 ± 0.37", "unit": "kg/m3"}, {"measurement": "mass density", "setting": "308.15 K, x2 = 0.35", "result": "963.29 ± 0.35", "unit": "kg/m3"}, {"measurement": "mass density", "setting": "308.15 K, x2 = 0.4001", "result": "980.93 ± 0.32", "unit": "kg/m3"}, {"measurement": "mass density", "setting": "308.15 K, x2 = 0.45", "result": "998.92 ± 0.3", "unit": "kg/m3"}]}]}
